Reference: PMC5917092, “Fine-Tuned Enzymatic Hydrolysis of Organosolv Pretreated Forest Materials for the Efficient Production of Cellobiose” (Frontiers in Chemistry, 2018)
pKi: −log10 of the molar value. “Also recorded” adds a separate entry of the source.

Assays:
TtCBH7 = TtCBH7 (Thermothelomyces thermophilus, UniProt G2Q665); assay: Kinetics and inhibition of TtCBH7 by mono/oligosaccharides with MUG2 as substrate (Lineweaver-Burk); assay type: biochemical, Thermothelomyces thermophila; details: for Kmapp: TtCBH7, substrate MUG2, in the presence of 10 mM inhibitor; for Inhibitory effect on TtCBH7 (in words): activity on MUG2, inhibitor 5 and 10 mM
TtCBH7, sequence (G2Q665 entry or part of it): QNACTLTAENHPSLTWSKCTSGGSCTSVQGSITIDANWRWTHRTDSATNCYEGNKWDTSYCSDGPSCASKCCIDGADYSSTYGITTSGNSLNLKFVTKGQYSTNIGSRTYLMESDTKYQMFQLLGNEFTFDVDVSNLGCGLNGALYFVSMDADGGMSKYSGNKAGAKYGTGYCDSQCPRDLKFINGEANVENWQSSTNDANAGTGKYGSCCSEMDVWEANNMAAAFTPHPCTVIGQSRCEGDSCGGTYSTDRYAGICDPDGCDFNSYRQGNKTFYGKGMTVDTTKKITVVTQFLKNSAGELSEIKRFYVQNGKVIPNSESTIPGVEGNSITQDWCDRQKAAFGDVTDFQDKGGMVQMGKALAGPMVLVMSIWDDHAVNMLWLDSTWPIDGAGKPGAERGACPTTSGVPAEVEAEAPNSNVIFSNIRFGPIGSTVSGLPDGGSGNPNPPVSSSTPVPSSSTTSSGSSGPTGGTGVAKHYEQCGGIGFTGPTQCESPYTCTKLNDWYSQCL
Experimental: (§1) The release of methyl-umbelliferyl was followed by measuring the absorbance at A350. The inhibition of CBHs by specific mono/oligosaccharides was determined by estimating the enzymatic activity on MUG2 in presence of different inhibitor concentrations (5 and 10 mM). Kinetic analysis of inhibition was carried out on xylose (X1), xylobiose (X2), xylotriose (X3), mannose (M1), mannobiose (M2), mannotriose (M3), glucose (G1), cellobiose (G2), and xylosyl-cellobiose (XC). Lineweaver–Burk plots were drawn to determine Km, Vmax, and inhibition constant (Ki) values.
Figure 4 Inhibition studies of TtCBH7 by glucan, xylan, and mannan mono- and oligo-saccharides. Absorbance at 355 nm was measured after 30 min incubation with MUG2 at concentrations ranging from 0.1 to 2 mM, at 45°C, pH 5.0.

TtCBH6 = assay: Kinetics and inhibition of TtCBH6 by mono/oligosaccharides with MUG2 as substrate (Lineweaver-Burk); assay type: biochemical, Thermothelomyces thermophila; details: for Inhibitory effect on TtCBH6 (in words): activity on MUG2, inhibitor 5 and 10 mM
Experimental: as §1, with “[…].” for “A350.”, “Lineweaver-Burk” for “Lineweaver–Burk”

[1] = TtCBH7, substrate MUG2, inhibitor 5 mM (Km app)
[2] = TtCBH7, substrate MUG2, inhibitor 10 mM (Km app)
[3] = TtCBH6, substrate MUG2, inhibitor 5 mM (Km app)
[4] = TtCBH6, substrate MUG2, inhibitor 10 mM (Km app)
[5] = TtCBH7, substrate MUG2, inhibitor 10 mM

Row | Molecule | Kmapp (TtCBH7) [mM] | Km/Km^app (TtCBH7; [1]) [µM] | Km/Km^app (TtCBH7; [2]) [µM] | Km/Km^app (TtCBH6; [3]) [µM] | Km/Km^app (TtCBH6; [4]) [µM] | pKi (TtCBH7; TtCBH7, substrate MUG2, inhibitor 5 mM) | pKi (TtCBH7; [5]) | Inhibitory effect on TtCBH7 (in words) (TtCBH7) | Inhibitory effect on TtCBH6 (in words) (TtCBH6) | Km (TtCBH7; TtCBH7, absence of any inhibitor) [µM] | Km/Km^app (TtCBH7; TtCBH7, substrate MUG2, no inhibitor (Km), pH 5.0, 45°C) [µM] | Km/Km^app (TtCBH6; TtCBH6, substrate MUG2, no inhibitor (Km), pH 5.0, 45°C) [µM]
1 | OC[C@H]1O[C@@H](O[C@H]2[C@H](O)[C@H](O)C(O)O[C@@H]2CO)[C@@H](O)[C@@H](O)[C@@H]1O (some centres unmarked) [Mannobiose, mannobiose] | 1.04 | 0.91 | 1.04 | 0.38 | 0.35 | – | – | – | – | – | – | –
2 | O=C[C@H](O)[C@@H](O)[C@H](O[C@@H]1O[C@H](CO)[C@@H](O)[C@H](O)[C@H]1O)[C@H](O)CO [Cellobiose, cellobiose] | 6.54 | 4.04 | 6.54 | 0.40 | 0.45 | 2.84 | 2.80 | strong inhibitor; also recorded: strongly inhibited | no inhibitory effect | – | – | –
3 | xylosyl-cellobiose | – | 0.99 | 1.01 | 0.43 | 0.48 | – | – | – | – | – | – | –
4 | OC1OC[C@@H](O[C@@H]2OC[C@@H](O[C@@H]3OC[C@@H](O)[C@H](O)[C@H]3O)[C@H](O)[C@H]2O)[C@H](O)[C@H]1O (some centres unmarked) [Xylotriose, xylotriose] | – | 0.77 | 0.95 | 0.42 | 0.46 | – | – | very weak inhibitory effect | – | – | – | –
5 | mannotriose | – | 0.88 | 0.98 | 0.41 | 0.44 | – | – | very weak inhibitory effect | – | – | – | –
6 | OC1OC[C@@H](O[C@@H]2OC[C@@H](O)[C@H](O)[C@H]2O)[C@H](O)[C@H]1O (some centres unmarked) [Xylobiose, xylobiose] | 1.17 | 0.81 | 1.17 | 0.44 | 0.41 | – | 1.48 | – | – | – | – | –
7 | OC[C@H]1OC(O)[C@H](O)[C@@H](O)[C@@H]1O (some centres unmarked) [Glucose, glucose] | 1.58 | 1.00 | 1.58 | 0.39 | 0.41 | – | 1.88 | – | no inhibitory effect | – | – | –
8 | Cc1cc(=O)oc2cc(O[C@@H]3O[C@H](CO)[C@@H](O[C@@H]4O[C@H](CO)[C@@H](O)[C@H](O)[C@H]4O)[C@H](O)[C@H]3O)ccc12 [MUG2, 4-methyl-umbelliferyl-β-cellobiose] | – | – | – | – | – | – | – | – | – | 900 | 0.90 | 0.42
